Results as given in patent US9603896B2, “Peptide compounds and methods of production and use thereof” (priority 2012, dated 2017).
Read-outs that look alike come from different tables or passages of the source. Square brackets hold non-standard residues; d marks the D form. Ends that are not written are not given here. Peptide text beside a SMILES is read from it. AEEA = NCCOCCOCC(=O)O

Key:
[1] = tested on: swine skin; experiment: Swine full thickness excisional dermal wound model; format: in vivo; conditions: for Mean Wound Healing (%): topical 3 mg/ml, 0.20 ml per wound daily
Method: In this Example, peptide compounds of the presently disclosed and claimed inventive concept(s) were evaluated as to their activity on the dermal wound healing process in a clinically relevant swine full thickness excisional wound model. Three different peptide formulations (Group B, Peptide 95-122 (SEQ ID NO:26); Group C, Peptide 120-146WH (SEQ ID NO:31); and Group D, Peptide 120-146QH-5RMP (SEQ ID NO:33)) were each evaluated at the same concentration (3 mg/ml). Sterile saline served as the control (Group A).
Full thickness excisional wounds were induced on the dorsum of swine (N=3) using a 1.0 cm biopsy punch. Treatments were administered (0.20 ml) to each wound (N=6 wounds per group), and the wounds were dressed with standard occlusive dressing ([…]™, 3M Corporation, St. Paul, Minn.). Treatments were reapplied daily and dressings changed. Clinical wound healing observations and wound area (2 mm) measurements were performed on days 0, 3, 5, 7, 10, and 14 post-wounding. Wound area (2 mm) data were expressed as percentage (%) of wound healing. Animals were terminated on day 14 with wounds harvested and processed for histological evaluation. […] All peptide formulation treatment groups healed faster with greater rate of closure and re-epithelialization over time, as compared to the saline control (Group A).

[2] = tested on: Pseudomonas aeruginosa ATCC® 27853™; format: cell-based; conditions: for Effects of Peptide Compounds on Pseudomonas aeruginosa ATCC ® 27853 ™: Table 6, 5 × 10^3 CFU/ml unless italicized = 1 × 10^5 CFU/ml
Method: (§1) The three peptide compounds BCC01-5RMP (SEQ ID NO:21), BCC02-5RMP (SEQ ID NO:22), and BCC03-5RMP (SEQ ID NO:23) were assayed for in vitro bactericidal activity against Pseudomonas aeruginosa, Escherichia coli, Salmonella typhimurium, and Acinetobacter baumannii. […] The CFU remaining at the end of 60 to 180 minute incubation was determined, and the data plotted as a log reduction in CFU/ml.
(§2) Tables 4-6 show the results of various peptides and peptide compounds against P. aeruginosa and E. coli strains. Tables 4 and 5 show the results of an investigation of the effects of peptide or peptide compounds BCC03-5RMP (SEQ ID NO:23), BCC03-MP (SEQ ID NO:24) and BCC03-5R (SEQ ID NO:20) against P. aeruginosa ATCC® strain 27853™ and E. coli ATCC® strain 25922™ (American Type Culture Collection, Manassas, Va.). […] Table 6 compares the activity of several other compounds, including the “5R” versions of BCC01, i.e., SEQ ID NO:18 (which comprises SEQ ID NO:1 with five additional arginines), the “5R” version of BCC02 (i.e., SEQ ID NO:19, which comprises SEQ ID NO:2 with five additional arginines), and BCC03-5RMP (SEQ ID NO:23), and BCC03-MP (SEQ ID NO:24, i.e., without the five additional R residues). The data generally indicate the superiority of BCC03-5RMP (SEQ ID NO:23) against E. coli, and the superiority of the 5R or 5RMP versions of the peptide over the “AEEA only” peptide against P. aeruginosa.
For FIGS. 10-13, in vitro bactericidal assays were performed using a starting inoculum of 1×10^6 CFU/ml of the bacterial suspension. The CFU remaining at the end of the 60-180 minute incubation was determined, and the data was plotted as log reduction in CFU/ml.
In particular, each of the test peptides (CAP37 peptides 120-146WR, 120-146WH, and 95-122 (SEQ ID NOs: 30, 31, and 26, respectively)) was used at 25, 12.5, 6.25, and 3.12 μM. Gentamicin was used at 4 μg/ml. 1×10^6/ml Acinetobacter baumannii ATCC® BAA-747″ or Pseudomonas aeruginosa ATCC® 27853™ (American Type Culture Collection, Manassas, Va.) were incubated with the peptides, negative buffer control (tryptone saline), and positive control gentamicin at pH 5.5 or 7.2. A 60 minute incubation was used for Acinetobacter baumannii ATCC® BAA747™, while a 180 minute incubation was used for Pseudomonas aeruginosa ATCC® 27853™. 50 μl aliquots were plated out on agar plates and incubated overnight. Colony forming units were counted after overnight incubation and CFU/ml calculated.
For FIG. 14, 1×10^6/ml Pseudomonas aeruginosa ATCC® 27853™ were incubated with each of the test peptides (CAP37 peptides 120-146WR, 120-146WH, 120-146QR, 120-146QH, 120-146QR-5RMP, and 120-146QH-5RMP (SEQ ID NOs: 30, 31, 28, 29, 32, and 33, respectively)) at 150, 75, and 37.5 μg/ml, or negative buffer control (tryptone saline), for 180 minutes at pH 5.5. 50 μl aliquots were plated out on agar plates and incubated overnight. Colony forming units were counted after overnight incubation and CFU/ml calculated.

[3] = tested on: E. coli ATCC® strain 25922™; format: cell-based, Escherichia coli; design: Effects of Peptide Compounds on Escherichia coli ATCC ® 25922 ™: unit not given here; conditions: Table 6, 5 × 10^3 CFU/ml unless italicized = 1 × 10^5 CFU/ml
Method: as §1, §2

[4] = wounds harvested day 14, 3 mg/ml topical

Molecule | Effects of Peptide Compounds on Escherichia coli ATCC ® 25922 ™ ([3]; 12.5 μg/ml) | Effects of Peptide Compounds on Escherichia coli ATCC ® 25922 ™ ([3]; 25 μg/ml) | Effects of Peptide Compounds on Escherichia coli ATCC ® 25922 ™ ([3]; 50 μg/ml) | Effects of Peptide Compounds on Escherichia coli ATCC ® 25922 ™ ([3]; 100 μg/ml) | Effects of Peptide Compounds on Escherichia coli ATCC ® 25922 ™ ([3]; 200 μg/ml) | Effects of Peptide Compounds on Escherichia coli ATCC ® 25922 ™ ([3]; 400 μg/ml) | Effects of Peptide Compounds on Pseudomonas aeruginosa ATCC ® 27853 ™ ([2]; 6.25 μg/ml) | Effects of Peptide Compounds on Pseudomonas aeruginosa ATCC ® 27853 ™ ([2]; 12.5 μg/ml) | Effects of Peptide Compounds on Pseudomonas aeruginosa ATCC ® 27853 ™ ([2]; 25 μg/ml) | Effects of Peptide Compounds on Pseudomonas aeruginosa ATCC ® 27853 ™ ([2]; 50 μg/ml) | Effects of Peptide Compounds on Pseudomonas aeruginosa ATCC ® 27853 ™ ([2]; 100 μg/ml) | Effects of Peptide Compounds on Pseudomonas aeruginosa ATCC ® 27853 ™ ([2]; 200 μg/ml) | Effects of Peptide Compounds on Pseudomonas aeruginosa ATCC ® 27853 ™ ([2]; 400 μg/ml) | further results
CC(C)C[C@H](NC(=O)[C@H](CCCNC(=N)N)NC(=O)CNC(=O)CNC(=O)[C@H](CO)NC(=O)[C@H](Cc1c[nH]cn1)NC(=O)[C@H](CCC(N)=O)NC(=O)[C@H](CO)NC(=O)CNC(=O)[C@H](Cc1c[nH]c2ccccc12)NC(=O)CNC(=O)[C@H](C)NC(=O)[C@@H](NC(=O)[C@H](CCC(N)=O)NC(=O)[C@H](CS)NC(=O)[C@H](CCCNC(=N)N)NC(=O)[C@@H](NC(=O)CNC(=O)[C@H](CCCNC(=N)N)NC(=O)[C@H](CCCNC(=N)N)NC(=O)[C@H](CCCNC(=N)N)NC(=O)[C@H](CCCNC(=N)N)NC(=O)COCCOCCNC(=O)COCCOCCN)[C@@H](C)O)C(C)C)C(=O)N[C@@H](CO)C(=O)N[C@@H](CCCNC(=N)N)C(=O)N[C@@H](Cc1ccccc1)C(=O)N1CCC[C@H]1C(=O)N[C@@H](CCCNC(=N)N)C(=O)N[C@@H](Cc1ccccc1)C(=O)N[C@H](C(=O)N[C@@H](CC(N)=O)C(=O)N[C@H](C(=O)N[C@@H](CCCNC(=N)N)C(=O)O)C(C)C)C(C)C [120-146QH-5RMP] (H-[AEEA][AEEA]RRRRGTRCQVAGWGSQHSGGRLSRFPRFVNVR-OH) | – | – | – | – | – | – | – | – | – | – | – | – | – | Mean Wound Healing (%) ([1]; Day 0): 0.0%; Mean Wound Healing (%) ([1]; Day 3): 22.5%; Mean Wound Healing (%) ([1]; Day 5): 34.1%; Mean Wound Healing (%) ([1]; Day 7): 64.1%; Mean Wound Healing (%) ([1]; Day 10): 93.7%; Mean Wound Healing (%) ([1]; Day 14): 98.0%; histology: epidermal resurfacing and maturation vs saline control ([1]; day 14 post-wounding): greater extent of epidermal resurfacing and maturation of the epidermis; dermal wound healing vs saline ([1]; topically at 3 mg/ml, over 14 days): accelerate dermal wound healing; Histopathology Results, Mean Angiogenesis [1, 4]: 1.3; Histopathology Results, Mean Epithelization [1, 4]: 4.0; Histopathology Results, Mean Granulation [1, 4]: 4.0; Histopathology Results, Mean Inflammation [1, 4]: 0.5; reduction in CFU (FIG. 14) ([2]; pH 5.5, 180 minutes, 75 μg/ml): ~6 log
CC[C@H](C)[C@H](NC(=O)[C@H](CC(C)C)NC(=O)[C@H](C)NC(=O)CNC(=O)CNC(=O)[C@H](CS)NC(=O)[C@H](Cc1ccccc1)NC(=O)[C@H](Cc1c[nH]cn1)NC(=O)[C@H](CCCNC(=N)N)NC(=O)CNC(=O)[C@H](CCC(N)=O)NC(=O)[C@H](CC(N)=O)NC(=O)COCCOCCNC(=O)COCCOCCN)C(=O)N[C@@H](Cc1c[nH]cn1)C(=O)N[C@@H](C)C(=O)N[C@@H](CCCNC(=N)N)C(=O)N[C@@H](Cc1ccccc1)C(=O)N[C@H](C(=O)N[C@@H](CCSC)C(=O)N[C@H](C(=O)N[C@@H](C)C(=O)N[C@@H](C)C(=O)N[C@@H](CO)C(=O)N[C@@H](CO)C(=O)N[C@@H](Cc1ccccc1)C(=O)N[C@@H](CCC(N)=O)C(=O)O)[C@@H](C)O)C(C)C [BCC03-MP] (H-[AEEA][AEEA]NQGRHFCGGALIHARFVMTAASSFQ-OH; N-terminus and C-terminus assumed) | 21.8 | 27.2 | 24.6 | 27.5 | 46.0 | 58.2 | −38.2 | -45.6 | −27.3 | −2.9 | 44.0 | 74.4 | 92.8 | Effects of Peptide Compounds on Escherichia coli ATCC ® 25922 ™ ([3]; 6.25 μg/ml): 6.4
RRRRNQGRHFCGGALIHARFVMTAASCFQR (5-arginine peptide derivative of CAP37 peptide) [SEQ ID NO: 18 (Linear)] | – | – | – | – | – | – | – | – | – | – | – | – | – | Effects of Peptide Compounds on Escherichia coli ATCC ® 25922 ™ ([3]; 43.8 μg/ml): 93.9; Effects of Peptide Compounds on Escherichia coli ATCC ® 25922 ™ ([3]; 87.6 μg/ml): 95.3; Effects of Peptide Compounds on Escherichia coli ATCC ® 25922 ™ ([3]; 175.2 μg/ml): 97.1; Effects of Peptide Compounds on Escherichia coli ATCC ® 25922 ™ ([3]; 262.8 μg/ml): 100.0; Effects of Peptide Compounds on Pseudomonas aeruginosa ATCC ® 27853 ™ ([2]; 0.137 μg/ml): 25.4; Effects of Peptide Compounds on Pseudomonas aeruginosa ATCC ® 27853 ™ ([2]; 0.5475 μg/ml): 63.2; Effects of Peptide Compounds on Pseudomonas aeruginosa ATCC ® 27853 ™ ([2]; 2.19 μg/ml): 87.9; Effects of Peptide Compounds on Pseudomonas aeruginosa ATCC ® 27853 ™ ([2]; 8.76 μg/ml): 99.5; Effects of Peptide Compounds on Pseudomonas aeruginosa ATCC ® 27853 ™ ([2]; 87.6 μg/ml): 100.0
RRRRNQGRHFCGGALIHARFVMTAASCFQR (also: cyclized) [SEQ ID NO: 18 (Cyclized)] | 37.9 | 38.0 | 49.3 | 52.6 | 59.6 | 82.0 | 100.0 | 100.0 | 100.0 | 100.0 | 100.0 | 100.0 | 100.0 | Effects of Peptide Compounds on Pseudomonas aeruginosa ATCC ® 27853 ™ ([2]; 0.78 μg/ml): 99.6; Effects of Peptide Compounds on Pseudomonas aeruginosa ATCC ® 27853 ™ ([2]; 1.56 μg/ml): 98.4; Effects of Peptide Compounds on Pseudomonas aeruginosa ATCC ® 27853 ™ ([2]; 3.125 μg/ml): 100.0
